From patent US8383547B2 (priority 2005, dated 2013)

Assays:
[1] = test system: Aspergillus parasiticus NRRL2999; format: cell-based
[2] = test system: Aspergillus parasiticus NRRL2999; format: cell-based; remark: listed apart in the source
[3] = test system: dipeptidyl aminopeptidase II (DPP II); conditions: stated as known; cited from earlier work
[4] = test system: aflatoxin-producing microorganism; conditions: Non-Patent Literature 3; cited from earlier work

Molecule	Inhibition of growth of aflatoxin-producing microorganism [1]	Inhibition of aflatoxin production [2]	DPPII inhibition (known) [3]	Aflatoxin production inhibitory activity [4]
NCC[C@H](N)C(=O)N1CCCCC1 [Dab-Pip]	not observed	neither Orn-Pip nor Dab-Pip inhibited aflatoxin production	strong inhibitor	–
dioctatin	–	–	inhibition of dipeptidyl aminopeptidase II	–
NCCCC(N)C(=O)N1CCCCC1 (stereo not drawn) [Orn-Pip]	not observed	neither Orn-Pip nor Dab-Pip inhibited aflatoxin production	strong inhibitor	–
COP(=O)(OC)OC=C(Cl)Cl [dichlorvos]	–	–	–	weak
Cc1cccc2sc3nncn3c12 [tricyclazole]	–	–	–	weak
